The text below walks through data of patent US20220395539A1, “TRADITIONAL CHINESE MEDICINE COMPOSITION FOR TREATING PSORIASIS, PREPARATION METHOD THEREFOR AND USE THEREOF” (priority 2019, published 2022).

The data set concerns mice psoriasis-like skin lesion model induced by imiquimod. Nature of the data set: mice psoriasis-like skin lesion model induced by imiquimod. The following applies: methotrexate 1 mg/kg. In kind it is in vivo, C57BL/6 mice. Further details: Pathological score Epidermal cell keratinization / Pathological score Dermal thickness / Pathological score Total score: scale not given here. As to the method:
II. Pharmacodynamic Experiment of the Medicine Composition of the Present Application on Mice Psoriasis-Like Skin Lesion Model Induced by Imiquimod. Researching subjects: […] (2015000562136). The mice were fed with standard diet and the animal room was kept at the temperature of 23±2° C. and the humidity of 40% to 70%. […] The medium-dosage group of 9-ingredient macules-eliminating prescription: clinical equivalent dose. The low-dosage group of 9-ingredient macules-eliminating prescription: the dosage in the low-dosage group was ¼ of that in the high-dosage group. [table] Modeling method and treatment: […] Clinical symptoms: observe any clinical symptoms of each animal at the beginning and during the experiment. Any abnormal response should be recorded. […] PASI method: photos of the skin lesions were taken every day, and the erythema, scales and infiltration thickening degree at the skin lesions were scored, and the three scores were added up to obtain the total scores. […] End of experiment: after the experiment, the animals were sacrificed by CO2 deep anesthesia, and the corresponding tissues were collected. Statistics of data: the experimental data are expressed by Mean±SD, and the data between two groups are tested by T test, P<0.05 is considered as significant difference.

The mark [1] stands for this setting: Yujinyinxie tablet 0.72 g/kg, i.g. Qd.
[2] abbreviates: Yujinyinxie tablet 0.72 g/kg, i.g. Qd 7 days.

On to `CN(Cc1cnc2nc(N)nc(N)c2n1)c1ccc(C(=O)N[C@@H](CCC(=O)O)C(=O)O)cc1` [Methotrexate, methotrexate], for which the “effect on the weight compared with the model group” value (gavage 7 days, 9-ingredient 11.24, 5.62 and 2.81 g extract/kg) is reported as “reduced the weight”. Further, under setting [1], the “BW Day l” value is on record as 20.29 ± 0.68 g; the “Severity index Day 4 (total score of skin lesion, PASI method)” value was 1.65 ± 0.58; the “Severity index Day 5 (total score of skin lesion, PASI method)” value came to 2.20 ± 0.48; the “Severity index Day 6 (total score of skin lesion, PASI method)” value is recorded as 1.90 ± 0.39. Also, the “Severity index Day 7 (total score of skin lesion, PASI method)” value under setting [1] is 3.60 ± 0.63. Under setting [2], the “BW Day 8” value stood at 17.99 ± 2.71 g, the “Pathological score Dermal inflammatory cells infiltration degree” value is 1.10 ± 0.32,, the “Pathological score Dermal thickness” value is given as 1.50 ± 0.53 and the “Pathological score Epidermal cell keratinization” value stood at 1.60 ± 0.84. Besides, under setting [2], the “Pathological score Epidermal thickness” value is 1.60 ± 0.52,; the “Pathological score Total score” value was 5.80 ± 1.14; the “Severity index Day 8 (total score of skin lesion, PASI method)” value was 3.05 ± 1.82.
